Experimental findings from patent publication US10117899B2, “Delivery methods and compositions for nuclease-mediated genome engineering in hematopoietic stem cells” (Sangamo BioSciences, Inc., priority 2013, dated 2018) are described below.

For series [1], the system named is NSG mice. The series can be described thus: Transplantation of gene targeted CD34+ cells in NSG mice, engraftment of human CD45+ and GFP+ cells. To be noted: for effect on in vivo differentiation of treated cells: addition to the in vitro culture, PB 14 weeks post-transplant; for fraction of mice successfully engrafted with GFP+ cells: delayed treatment and addition of SR1 and dmPGE2 used in combination. Format: in vivo. The text has this:
For the in vivo studies, 8- to 11-week-old NOD-SCID-IL2Rg^−/− (NSG) mice were purchased from the Jackson laboratory. The experimental protocol was approved by the Institutional Animal Care and Use Committee of the San Raffaele Scientific Institute. At day 4 of culture, 3×10^5 gene targeted CD34+ cells (or 7.5×10^5 BM derived cells) were infused intravenously into the mice after sub-lethal irradiation (200 cGy).MDA3 human mammary carcinoma cell line was obtained by stable transduction of MDA-MB 231 cells with lentiviral vectors expressing the human cytokines GMCSF, IL-7 and IL-15 from the PGK promoter. 4×10^6MDA3 cells were implanted orthotopically in the mammary fat pad of NSG mice 14 weeks after CD34+ cells transplantation or in age-matched untransplanted NSG mice. Human CD45+ engraftment was followed by serial collections of blood from the mouse tail and, at the end of the experiment (12-23 weeks after transplantation), BM, spleen and thymus cells were harvested and analyzed. HumanT lymphocytes were enriched from mouse splenocytes using magnetic beads conjugated to anti human CD3 and CD28 antibodies (Dynabeads human T-activator CD3/CD28; Invitrogen), following the manufacturer instructions, and grown in Iscove's Modified Dulbecco's Media (IMDM) (GIBCO-BRL) supplemented with penicillin, streptomycin, 10% FBS and 5 ng/ml each of IL-7 and IL-15 (PeproTech).

Series [2] relates to CD34+ cells. The series can be described thus: Gene targeting of CD34+ cell subpopulations in culture supplemented with SR1 and/or dmPGE2. It is filed as cell-based, human. Here is the method: CD34+ cells were either freshly purified from human cord blood after obtaining informed consent and upon approval by the San Raffaele Hospital Bioethical Committee, or purchased frozen from Lonza. 10^6 CD34+ cells/ml were stimulated in serum-free StemSpan medium (StemCell Technologies) supplemented with penicillin, streptomycin and human early-acting cytokines (stem cell factor (SCF) 100 ng/ml, Flt3 ligand (Flt3-L) 100 ng/ml, thrombopoietin (TPO) 20 ng/ml, and interleukin 6 (IL-6) 20 ng/ml; all purchased from Peprotech) for 24 or 48 hr and then infected with IDLVs at multiplicity of infection (MOI) 100-500. The following day the cells were electroporated with 175 μg/ml ZFNs encoding mRNAs (P3 Primary Cell 4D-Nucleofector X Kit, program EO 100; Lonza). For some experiments, the following drugs were supplemented to the culture media: 1 μM SR1 (Novartis) added at every medium change, and 10 μM PGE2 (Cayman) added at the beginning of the culture, 1 hour before and just after electroporation. For CFC assays, 800 cells were plated one day after electroporation in methylcellulose-based medium (MethoCult H4434, StemCell Technologies). Two weeks after plating, colonies were counted and identified according to morphological criteria.
Because cell cycle progression is a major requirement of HDR, and activation of the more primitive progenitors may require longer stimulation, we postponed the gene targeting procedure to the third day of culture (FIG. 3C). At this time, the cells are also likely to become more permissive to LV transduction. However, since increasing times of culture lead to increased differentiation, we also tested addition of the Aryl Hydrocarbon Receptor Antagonist (StemRegenin 1, SR1) and/or 16.16 dimethyl-prostaglandin E2 (dmPGE2) to the culture medium to promote progenitor expansion in conditions that have been reported to preserve the stemness of these cells (FIG. 3D).

The mark [3] stands for this setting: 1 μM SR1 added to culture medium.

For the molecule `CC(C)n1cnc2c(NCCc3ccc(O)cc3)nc(-c3csc4ccccc34)nc21` [SR1, StemRegenin 1], in series [1], the “effect on in vivo differentiation of treated cells” value is listed as “did not significantly affect” and the “fraction of mice successfully engrafted with GFP+ cells” value is 100%. Further, the “total human cell engraftment in the mice” value in series [1] (after SR1 addition to the culture) is listed as “significantly increased”. Further, in series [2] (setting [3]), the “effect on overall yield of GFP+ CFC and early (CD133+) progenitors” value is listed as “increased”; the “effect on percentage of GFP+ cells within each subpopulation” value is listed as “slightly reduced”. In series [2] (SR1 treatment), the “effect on targeting efficiency” value is listed as “did not significantly influence” and the “effect on the more primitive fractions in culture” value is listed as “helped maintain the more primitive fractions in culture”.
On to `CCCCC(C)(C)[C@H](O)/C=C/[C@H]1[C@H](O)CC(=O)[C@@H]1C/C=C\CCCC(=O)O` [dmPGE2, 16.16 dimethyl-prostaglandin E2], for which, in series [1], the “effect on in vivo differentiation of treated cells” value was “did not significantly affect” and the “fraction of mice successfully engrafted with GFP+ cells” value is given as 100%. Also, in series [2], the “apoptotic rate of cells treated with or without dmPGE2” value is recorded as “did not observe significant differences”. In addition, the “effect on percentage of GFP+ cells in all subpopulations” value in series [2] (dmPGE2 added to culture, additive effects with SR1) is “further increased”.
